# Measurements as given in patent US20230270871A1, “MARKERS FOR USE IN METHODS FOR TREATING CANCERS WITH ANTIBODY DRUG CONJUGATES (ADC)” (AGENSYS, INC., priority 2020, published 2023).
# Where a SMILES comes first, the peptide text is derived from it. [ ]: non-standard residue; d: D form. The star is where a group is joined. Dolaproine = CO[C@@H]([C@@H]1CCCN1)[C@@H](C)C(=O)O; Dil = CC[C@H](C)[C@H](NC)[C@@H](CC(=O)O)OC; X1 = C[C@@H](N*)[C@@H](O)c1ccccc1; NMeV = CN[C@H](C(=O)O)C(C)C
# T1: human Nectin-4 (human, UniProt Q96NY8 32-510)
# T1 sequence: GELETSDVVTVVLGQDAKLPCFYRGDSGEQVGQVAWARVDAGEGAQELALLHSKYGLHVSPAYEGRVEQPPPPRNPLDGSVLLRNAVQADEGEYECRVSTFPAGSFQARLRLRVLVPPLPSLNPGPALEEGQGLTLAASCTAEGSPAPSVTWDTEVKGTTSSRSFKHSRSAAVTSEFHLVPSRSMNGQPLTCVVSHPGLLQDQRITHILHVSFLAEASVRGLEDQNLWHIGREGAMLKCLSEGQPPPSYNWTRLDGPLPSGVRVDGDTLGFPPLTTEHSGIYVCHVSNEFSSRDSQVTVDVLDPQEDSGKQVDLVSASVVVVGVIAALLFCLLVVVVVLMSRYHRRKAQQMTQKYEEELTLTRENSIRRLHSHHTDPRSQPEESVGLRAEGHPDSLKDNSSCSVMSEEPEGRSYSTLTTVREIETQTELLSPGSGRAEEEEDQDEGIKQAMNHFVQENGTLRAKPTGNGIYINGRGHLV
# B1: enfortumab vedotin (antibody, human IgG1, kappa, V domains shown)
# VH: EVQLVESGGGLVQPGGSLRLSCAASGFTFSSYNMNWVRQAPGKGLEWVSYISSSSSTIYYADSVKGRFTISRDNAKNSLSLQMNSLRDEDTAVYYCARAYYYGMDVWGQGTTVTVSS
# VL: DIQMTQSPSSVSASVGDRVTITCRASQGISGWLAWYQQKPGKAPKFLIYAASTLQSGVPSRFSGSGSGTDFTLTISSLQPEDFATYYCQQANSFPPTFGGGTKVEIKR
# modifications: MMAE conjugated via a protease-cleavable maleimidocaproyl valine-citrulline (vc) linker on cysteine residues that comprise the interchain disulfide bonds; drug-to-antibody ratio approximately 3.8:1
# Experiments:
# T-24-Nectin-4 cells = experiment: ICD cell surface markers (calreticulin, HSP70); assay type: cell-based, human; conditions: anti-nectin-4 ADC 1 ug/mL, MMAE 100 nM, compared with untreated or control hIgG-MMAE (1 mg/mL)
# Source text: FIG. 4A is a cartoon representation of the release of ATP and HMGB1 by cells treated with an anti-nectin-4 ADC and the effects of the released ATP and HMGB1 on macrophages. FIG. 4B is a cartoon representation of the release of ATP and HMGB1 by cells treated with an anti-nectin-4 ADC, the activation of the immune cells by the ATP and HMGB1, and the potential immunogenic cell death or immunogenic cell killing by the activated immune cells. FIG. 4C depicts ATP release in control T-24 cells and T-24 cells expressing nectin-4 after various treatments as indicated. FIG. 4D depicts ATP release in control UM-UC-3 cells and UM-UC-3 cells expressing nectin-4 after various treatments as indicated. FIG. 4E depicts HMGB1 release in control T-24 cells and T-24 cells expressing nectin-4 after various treatments as indicated. FIGS. 4F and 4G depict cell surface calreticulin (4F) and HSP70 (4G), respectively, in cells upon various treatments as indicated. Increase in ICD cell surface markers such as calreticulin or HSP70 can be detected on T-24-Nectin-4 cells upon treatment with an anti-nectin-4 ADC (1 ug/mL) or MMAE (100 nM) compared with untreated or treatment with the control hIgG-MMAE (1 mg/mL). In FIGS. 4C to 4G, EV and AGS-22C3E indicate the same anti-nectin-4 ADC.
# phospho-JNK [1] = experiment: ER stress, phospho-JNK activation; assay type: cell-based
# phospho-JNK [2] = experiment: Phospho-JNK western blot; assay type: cell-based; conditions: FIG. 9C
# Procedure: T-24 Nectin-4 (clone1A9) cells were treated with an anti-nectin-4 ADC (AGS-22C3E) for 48 hours and stained with β-tubulin for microtubules and DAPI, a nuclear DNA stain. FIGS. 9B and 9C depict activation of phospho-INK in response to the treatment with an anti-nectin-4 ADC (AGS-22C3E). In FIG. 9B, western blots show an increase in phospho-JNK over a period of 48 hours upon treatment with an anti-nectin-4 ADC (AGS-22C3E) at 1 ug/mL). In FIG. 9C, Phosphorylation of JNK is observed in treatment with an anti-nectin-4 ADC (AGS-22C3E) and MMAE but absent in untreated or non-binding ADC control.
# [3] = tested on: acute myeloid leukemia (AML) at relapse; conditions: administered alone; cited from earlier work
# human Nectin-4 = molecular target: T1, human Nectin-4; experiment: cell-based or functional assay
molecule,measurement,setting,value
"CC[C@H](C)[C@@H]([C@@H](CC(=O)N1CCC[C@H]1[C@H](OC)[C@@H](C)C(=O)N[C@H](C)[C@@H](O)c1ccccc1)OC)N(C)C(=O)[C@@H](NC(=O)[C@@H](NC)C(C)C)C(C)C [MMAE, monomethyl auristatin E] (H-[NMeV]V[Dil][Dolaproine]-X1)",cell surface calreticulin (ICD marker),T-24-Nectin-4 cells; FIG. 4F,Increase
same,cell surface HSP70 (ICD marker),T-24-Nectin-4 cells; FIG. 4G,Increase
same,phospho-JNK activation,phospho-JNK [1],activates phospho-JNK
same,phosphorylation of JNK,phospho-JNK [2],observed
"CT-011: anti-PD-1 antibody, a humanized antibody",response in AML at relapse,[3],failed to show response
B1,Enfortumab vedotin Cytotoxicity IC50 (T-24 Nectin-4 Clone 1A9 cells; cell viability by CELL TITER-GLO 120 hours post-treatment),human Nectin-4,0.085 µg/mL
same,Enfortumab vedotin Cytotoxicity IC50 (UM-UC-3 Nectin-4 Clone 1D11 cells; cell viability by CELL TITER-GLO 120 hours post-treatment),human Nectin-4,0.006 µg/mL
